Results: paper PMC6934184, “Selective DNA-PKcs inhibition extends the therapeutic index of localized radiotherapy and chemotherapy” (The Journal of Clinical Investigation, 2019)

Biological target: T1, CLK1 (Homo sapiens, UniProt P49759)
T1 construct: purchased Thermo Fisher Scientific (Life Technologies) SelectScreen
Test: SelectScreen Z'LYTE
Type: biochemical
Summary of the method: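 SelectScreen broad panel; activity (Z'LYTE, Adapta) plus binding formats. ATP: Km app for CSF1R Z'LYTE; 10 for CAMK1 Adapta. Readout = % per kinase.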

T1 sequence (P49759 whole entry): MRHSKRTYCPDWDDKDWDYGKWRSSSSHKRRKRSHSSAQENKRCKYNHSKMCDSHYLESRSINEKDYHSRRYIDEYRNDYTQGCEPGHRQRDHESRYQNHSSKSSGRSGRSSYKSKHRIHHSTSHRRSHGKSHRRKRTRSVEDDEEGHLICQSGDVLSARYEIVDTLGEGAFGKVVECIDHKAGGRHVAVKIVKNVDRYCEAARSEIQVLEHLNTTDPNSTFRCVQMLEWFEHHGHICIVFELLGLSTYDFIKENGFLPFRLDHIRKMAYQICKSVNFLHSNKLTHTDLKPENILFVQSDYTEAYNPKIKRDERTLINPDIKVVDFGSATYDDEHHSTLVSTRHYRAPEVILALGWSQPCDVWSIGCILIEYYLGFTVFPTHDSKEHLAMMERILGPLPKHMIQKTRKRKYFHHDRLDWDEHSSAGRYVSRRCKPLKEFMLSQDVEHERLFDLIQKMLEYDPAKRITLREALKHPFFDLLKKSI

CN(C(=O)CN1CCOCC1)c1ccc2sc3c(-c4cccc5c(=O)cc(N6CC7CCC(C6)O7)oc45)cccc3c2c1 [NU5455]
inhibition at 1 µM: 11.7%
